Key:
[1] = biological target: T1, CDK1/Cyclin B1 (Homo sapiens, UniProt P06493); experiment: CDK1/Cyclin B1 enzymatic phosphorylation assay (Caliper mobility shift); type: biochemical; conditions: read-out: Enzyme CDK1/cyclin B1 IC50
T1 construct: GST; purchased BPS 40454
Procedure: (§1) Reactions proceeded until between 10% to 20% total peptides were phosphorylated at room temperature (25° C.) and were terminated with 35 mM 2,2′,2″,2′″-(ethane-1,2-diyldinitrilo)tetraacetic acid (EDTA). Product was detected using the Caliper mobility shift detection method where the phosphorylated peptide (product) and substrate were electrophoretically separated and measured. Percent activity was plotted against log concentration of compound and points to generate an apparent IC50.

[2] = biological target: T2, CDK2/Cyclin E (Homo sapiens, UniProt P24941); experiment: CDK2/Cyclin E enzymatic phosphorylation assay (Caliper mobility shift); type: biochemical; conditions: read-out: Enzyme CDK2/cyclin E IC50; further: 1.0 mM ATP or ATP Km
T2 construct: purchased Eurofins 14-475
Procedure: as §1

T1 sequence (P06493 whole entry): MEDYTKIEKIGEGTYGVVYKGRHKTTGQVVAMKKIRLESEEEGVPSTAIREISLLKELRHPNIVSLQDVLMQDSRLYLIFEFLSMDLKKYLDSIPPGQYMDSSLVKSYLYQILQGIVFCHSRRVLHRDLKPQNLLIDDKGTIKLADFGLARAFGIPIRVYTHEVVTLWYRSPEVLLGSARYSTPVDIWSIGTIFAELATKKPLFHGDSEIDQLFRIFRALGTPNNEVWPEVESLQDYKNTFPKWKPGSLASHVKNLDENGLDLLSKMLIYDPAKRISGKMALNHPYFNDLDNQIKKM
T1 sequence (P14635 whole entry partner): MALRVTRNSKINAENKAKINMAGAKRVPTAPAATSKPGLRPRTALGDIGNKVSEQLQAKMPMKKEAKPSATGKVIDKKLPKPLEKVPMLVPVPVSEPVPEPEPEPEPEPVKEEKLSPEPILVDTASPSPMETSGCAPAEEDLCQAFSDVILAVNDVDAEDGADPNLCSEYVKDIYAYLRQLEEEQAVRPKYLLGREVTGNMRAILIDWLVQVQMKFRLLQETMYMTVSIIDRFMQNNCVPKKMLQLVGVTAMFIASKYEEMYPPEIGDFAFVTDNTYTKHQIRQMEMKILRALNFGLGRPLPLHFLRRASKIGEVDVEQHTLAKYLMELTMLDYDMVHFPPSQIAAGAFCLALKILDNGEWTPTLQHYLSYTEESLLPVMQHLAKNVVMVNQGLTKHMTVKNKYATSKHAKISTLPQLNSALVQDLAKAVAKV

SMILES	IC50 [1]	IC50 [2]
Cc1cc(Nc2cnc3cnn([C@@H](C)C4CCOCC4)c3n2)n[nH]1 [Example 54, (S)-N-(5-methyl-1H-pyrazol-3-yl)-1-(1-(tetrahydro-2H-pyran-4-yl)ethyl)-1H-pyrazolo[3,4-b]pyrazin-6-amine]	3670 nM	26 nM
Cc1cc(Nc2cnc3c(Cl)nn([C@@H](C)c4cccnc4)c3n2)n[nH]1 [Example 27, (S)-3-chloro-N-(5-methyl-1H-pyrazol-3-yl)-1-(1-(pyridin-3-yl)ethyl)-1H-pyrazolo[3,4-b]pyrazin-6-amine]	10000 nM	96.1 nM
CC(C)c1cc(Nc2cnc3cnn(C[C@@H]4CCCOC4)c3n2)n[nH]1 (single isomer, unassigned) [Example 10, (S)-N-(5-isopropyl-1H-pyrazol-3-yl)-1-((tetrahydro-2H-pyran-3-yl)methyl)-1H-pyrazolo[3,4-b]pyrazin-6-amine or (R)-N-(5-isopropyl-1H-pyrazol-3-yl)-1-((tetrahydro-2H-pyran-3-yl)methyl)-1H-pyrazolo[3,4-b]pyrazin-6-amine]	147 nM	0.5 nM
CC[C@@H]([C@H](C)O)n1ncc2ncc(Nc3cc(C(C)C)[nH]n3)nc21 (single isomer, unassigned) [Example 13, (2S,3S)-3-(6-((5-isopropyl-1H-pyrazol-3-yl)amino)-1H-pyrazolo[3,4-b]pyrazin-1-yl)pentan-2-ol or (2S,3R)-3-(6-((5-isopropyl-1H-pyrazol-3-yl)amino)-1H-pyrazolo[3,4-b]pyrazin-1-yl)pentan-2-ol]	907 nM	2.3 nM
C[C@@H](c1cccnc1)n1ncc2ncc(Nc3cc(C(F)F)[nH]n3)nc21 [Example 2, (S)-N-(5-(difluoromethyl)-1H-pyrazol-3-yl)-1-(1-(pyridin-3-yl)ethyl)-1H-pyrazolo[3,4-b]pyrazin-6-amine]	6030 nM	22.8 nM
Cc1cc(Nc2cnc3cnn(C[C@H]4CCCOC4)c3n2)n[nH]1 [Example 5, (R)-N-(5-methyl-1H-pyrazol-3-yl)-1-((tetrahydro-2H-pyran-3-yl)methyl)-1H-pyrazolo[3,4-b]pyrazin-6-amine]	5230 nM	57.6 nM
CC(C)c1cc(Nc2cnc3cnn(C[C@H](C)CO)c3n2)n[nH]1 [Example 61, (S)-3-(6-((5-isopropyl-1H-pyrazol-3-yl)amino)-1H-pyrazolo[3,4-b]pyrazin-1-yl)-2-methylpropan-1-ol]	1880 nM	13.2 nM
C[C@H](c1cc(Nc2cnc3cnn(CC4CCOCC4)c3n2)n[nH]1)C(F)F (single isomer, unassigned) [Example 20]	1010 nM	7.4 nM
CC(C)c1cc(Nc2cnc3cnn(CC4CCOCC4)c3n2)n[nH]1 [Example 30, N-(5-isopropyl-1H-pyrazol-3-yl)-1-((tetrahydro-2H-pyran-4-yl)methyl)-1H-pyrazolo[3,4-b]pyrazin-6-amine]	113 nM	0.6 nM
Cc1nc2cnn(Cc3cccnc3)c2nc1Nc1cc(C(C)C)[nH]n1 [Example 18, N-(5-isopropyl-1H-pyrazol-3-yl)-5-methyl-1-(pyridin-3-ylmethyl)-1H-pyrazolo[3,4-b]pyrazin-6-amine]	3230 nM	15.1 nM
C[C@@H](c1cc(Nc2cnc3cnn(CC4CCOCC4)c3n2)n[nH]1)C(F)F (single isomer, unassigned) [Example 21]	595 nM	5.4 nM

Next, values leading:

IC50 [1]	IC50 [2]	SMILES
644 nM	2.8 nM	Fc1ncccc1Cn1ncc2ncc(Nc3cc(C4COC4)[nH]n3)nc21 [Example 49, 1-((2-fluoropyridin-3-yl)methyl)-N-(5-(oxetan-3-yl)-1H-pyrazol-3-yl)-1H-pyrazolo[3,4-b]pyrazin-6-amine]
10000 nM	76.1 nM	C[C@@H](c1ccccn1)n1ncc2ncc(Nc3cc(C#N)[nH]n3)nc21 [Example 25, (S)-3-((1-(1-(pyridin-2-yl)ethyl)-1H-pyrazolo[3,4-b]pyrazin-6-yl)amino)-1H-pyrazole-5-carbonitrile]
1060 nM	4.2 nM	Cc1cc(Nc2cnc3cnn([C@@H](C)c4cccnc4Cl)c3n2)n[nH]1 [Example 26, (S)-1-(1-(2-chloropyridin-3-yl)ethyl)-N-(5-methyl-1H-pyrazol-3-yl)-1H-pyrazolo[3,4-b]pyrazin-6-amine]
1060 nM	7.9 nM	Fc1cccc(Cn2ncc3ncc(Nc4cc(C5COC5)[nH]n4)nc32)c1 [Example 46, 1-(3-fluorobenzyl)-N-(5-(oxetan-3-yl)-1H-pyrazol-3-yl)-1H-pyrazolo[3,4-b]pyrazin-6-amine]
3060 nM	44.8 nM	Fc1cncc(Cn2ncc3ncc(Nc4cc(C5COC5)[nH]n4)nc32)c1 [Example 50, 1-((5-fluoropyridin-3-yl)methyl)-N-(5-(oxetan-3-yl)-1H-pyrazol-3-yl)-1H-pyrazolo[3,4-b]pyrazin-6-amine]
1900 nM	10.8 nM	c1cncc(Cn2ncc3ncc(Nc4cc(C5COC5)[nH]n4)nc32)c1 [Example 34, N-(5-(oxetan-3-yl)-1H-pyrazol-3-yl)-1-(pyridin-3-ylmethyl)-1H-pyrazolo[3,4-b]pyrazin-6-amine]
1540 nM	14.1 nM	COc1ncccc1[C@H](C)n1ncc2ncc(Nc3cc(C)[nH]n3)nc21 [Example 23, (S)-1-(1-(2-methoxypyridin-3-yl)ethyl)-N-(5-methyl-1H-pyrazol-3-yl)-1H-pyrazolo[3,4-b]pyrazin-6-amine]
951 nM	2 nM	C[C@@H](c1ccccn1)n1ncc2ncc(Nc3cc(C4COC4)[nH]n3)nc21 [Example 55, (S)-N-(5-(oxetan-3-yl)-1H-pyrazol-3-yl)-1-(1-(pyridin-2-yl)ethyl)-1H-pyrazolo[3,4-b]pyrazin-6-amine]
3460 nM	8.8 nM	C[C@@H](c1cccnc1F)n1ncc2ncc(Nc3cc(C#N)[nH]n3)nc21 [Example 22, (S)-3-((1-(1-(2-fluoropyridin-3-yl)ethyl)-1H-pyrazolo[3,4-b]pyrazin-6-yl)amino)-1H-pyrazole-5-carbonitrile]
